According to patent US12459932B2, “KIF18A inhibitors” (AMGEN INC., priority 2018, dated 2025):

Target: T1, Recombinant human KIF18A (1-467 His-tagged) (Homo sapiens, UniProt Q8NI77)
T1 construct: Recombinant human KIF18A (1-467 His-tagged) protein; His
Assay: KIF18A Enzyme Assay: microtubule-stimulated ATPase activity (ADP-Glo)
Format: biochemical
Conditions: 30 nM KIF18A, 30 μg/mL pig microtubules, ATP 75 μM (Km), ADP-Glo luminescence
Method in brief: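 Measures microtubule-stimulated ATPase activity as ADP formed, detected by luminescence. Compounds were tested as 2-fold serial dilutions over 22 points. IC50 values came from four-parameter logistic fits.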

T1 sequence (Q8NI77 1-467): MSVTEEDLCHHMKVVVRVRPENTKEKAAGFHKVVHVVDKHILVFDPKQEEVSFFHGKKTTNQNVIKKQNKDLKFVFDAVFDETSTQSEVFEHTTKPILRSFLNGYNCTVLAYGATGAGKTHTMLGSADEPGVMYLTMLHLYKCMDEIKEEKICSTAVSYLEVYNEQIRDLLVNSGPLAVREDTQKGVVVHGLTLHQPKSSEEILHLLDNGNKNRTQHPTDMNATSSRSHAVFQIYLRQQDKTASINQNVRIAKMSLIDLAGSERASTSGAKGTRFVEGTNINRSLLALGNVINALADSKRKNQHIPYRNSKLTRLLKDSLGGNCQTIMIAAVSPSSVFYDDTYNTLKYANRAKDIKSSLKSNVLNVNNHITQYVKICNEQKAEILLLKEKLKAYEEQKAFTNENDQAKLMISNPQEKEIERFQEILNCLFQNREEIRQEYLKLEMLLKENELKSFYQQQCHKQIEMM
T1 sequence (P02550 whole entry partner): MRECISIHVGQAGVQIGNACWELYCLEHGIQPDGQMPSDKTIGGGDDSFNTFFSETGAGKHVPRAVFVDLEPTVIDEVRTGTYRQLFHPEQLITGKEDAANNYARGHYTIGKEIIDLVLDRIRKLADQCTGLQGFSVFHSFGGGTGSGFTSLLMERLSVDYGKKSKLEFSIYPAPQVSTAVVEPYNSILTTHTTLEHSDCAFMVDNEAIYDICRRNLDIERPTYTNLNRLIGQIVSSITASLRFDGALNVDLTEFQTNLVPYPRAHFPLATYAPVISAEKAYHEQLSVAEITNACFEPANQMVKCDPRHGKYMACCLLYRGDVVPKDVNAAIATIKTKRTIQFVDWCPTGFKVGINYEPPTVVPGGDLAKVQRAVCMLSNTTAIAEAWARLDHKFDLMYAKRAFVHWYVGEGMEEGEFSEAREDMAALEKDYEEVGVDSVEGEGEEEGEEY
T1 sequence (P02554 whole entry partner): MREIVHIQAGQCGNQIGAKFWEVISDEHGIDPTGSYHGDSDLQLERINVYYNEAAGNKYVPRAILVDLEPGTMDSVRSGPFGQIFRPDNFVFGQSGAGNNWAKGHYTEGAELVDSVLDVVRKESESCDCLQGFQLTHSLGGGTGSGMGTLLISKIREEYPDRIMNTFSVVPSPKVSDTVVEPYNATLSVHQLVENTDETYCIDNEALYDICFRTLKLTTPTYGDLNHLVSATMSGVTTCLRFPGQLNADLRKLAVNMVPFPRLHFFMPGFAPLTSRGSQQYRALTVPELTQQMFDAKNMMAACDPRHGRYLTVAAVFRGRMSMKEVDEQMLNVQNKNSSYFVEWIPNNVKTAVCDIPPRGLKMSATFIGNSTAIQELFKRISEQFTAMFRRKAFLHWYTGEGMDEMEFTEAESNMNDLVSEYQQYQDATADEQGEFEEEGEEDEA

| SMILES | IC50 |
| --- | --- |
| Cc1cc(NC(=O)c2ccc(CS(C)(=O)=O)cc2N2CCC3(CC2)CC3)nc(N2CCOCC2)c1 [Example 4-16, N-(4-Methyl-6-morpholinopyridin-2-yl)-4-((methylsulfonyl)methyl)-2-(6-azaspiro[2.5]octan-6-yl)benzamide] | 145 nM |
| Cc1cc(NC(=O)c2ccc(NS(=O)(=O)C3CC3)cc2N2CCC3(CC2)CC3)nc(N2CC(F)(F)C2)c1 [Example 7-34, 4-(Cyclopropanesulfonamido)-N-(6-(3,3-difluoroazetidin-1-yl)-4-methylpyridin-2-yl)-2-(6-azaspiro[2.5]octan-6-yl)benzamide] | 41 nM |
| Cc1cc(NC(=O)c2ccc(NS(=O)(=O)CCO)cc2N2CCC3(CC2)CC3)nc(OCC(O)C(F)(F)F)c1 (stereo not drawn) [Example 17-1, 4-((2-Hydroxyethyl)sulfonamido)-N-(4-methyl-6-(3,3,3-trifluoro-2-hydroxypropoxy)pyridin-2-yl)-2-(6-azaspiro[2.5]octan-6-yl)benzamide] | 68 nM |
| O=C(Nc1cccc(OCCC(F)(F)F)n1)c1ccc(NS(=O)(=O)CCO)cc1N1CCC2(CC1)CC2 [Example 5, 4-((2-Hydroxyethyl)sulfonamido)-2-(6-azaspiro[2.5]octan-6-yl)-N-(6-(3,3,3-trifluoropropoxy)pyridin-2-yl)benzamide] | 25 nM |
| Cc1cc(NC(=O)c2ccc(NS(=O)(=O)C3CCC3)cc2N2CCC3(CC2)CC3)nc(N2CC(F)(F)C2)c1 [Example 7-30, 4-(Cyclobutanesulfonamido)-N-(6-(3,3-difluoroazetidin-1-yl)-4-methylpyridin-2-yl)-2-(6-azaspiro[2.5]octan-6-yl)benzamide] | 78 nM |
| Cc1cc(NC(=O)c2ccc(NS(C)(=O)=O)cc2N2CCC3(CC2)CC3)nc(N2CC(F)(F)C2)c1 [Example 7-27, N-(6-(3,3-Difluoroazetidin-1-yl)-4-methylpyridin-2-yl)-4-(methylsulfonamido)-2-(6-azaspiro[2.5]octan-6-yl)benzamide] | 14 nM |
| CC(C)(C)c1cccc(NC(=O)c2ccc(S(C)(=O)=O)cc2N2CCC3(CC2)CC3)n1 [Example 4-6, N-(6-(tert-Butyl)pyridin-2-yl)-4-(methylsulfonyl)-2-(6-azaspiro[2.5]octan-6-yl)benzamide] | 166 nM |
| C[C@@H]1CN(c2cccc(NC(=O)c3ccc(NS(=O)(=O)CCO)cc3N3CCC4(CC3)CC4)n2)CCO1 [Example 7-12, (R)-4-((2-Hydroxyethyl)sulfonamido)-N-(6-(2-methylmorpholino)pyridin-2-yl)-2-(6-azaspiro[2.5]octan-6-yl)benzamide] | 30 nM |
| CC1(O)CCN(c2cccc(NC(=O)c3ccc(NS(=O)(=O)C4(C)CC4)cc3N3CCC4(CC3)CC4)n2)CC1 [Example 3-8, N-(6-(4-Hydroxy-4-methylpiperidin-1-yl)pyridin-2-yl)-4-((1-methylcyclopropane)-1-sulfonamido)-2-(6-azaspiro[2.5]octan-6-yl)benzamide] | 243 nM |
| Cc1cc(NC(=O)c2ccc(NS(=O)(=O)C(C)(C)C)cc2N2CCC3(CC2)CC3)nc(N2CC(F)(F)C2)c1 [Example 7-29, N-(6-(3,3-Difluoroazetidin-1-yl)-4-methylpyridin-2-yl)-4-((1,1-dimethylethyl)sulfonamido)-2-(6-azaspiro[2.5]octan-6-yl)benzamide] | 134 nM |
| Cc1cc(NC(=O)c2ccc(NS(=O)(=O)C3CC3)cc2N2CCC3(CC2)CC3)nc(N2CCC(F)(F)CC2)c1 [Example 7-25, 4-(Cyclopropanesulfonamido)-N-(6-(4,4-difluoropiperidin-1-yl)-4-methylpyridin-2-yl)-2-(6-azaspiro[2.5]octan-6-yl)benzamide] | 39 nM |
| Cc1cc(NC(=O)c2ccc(NS(=O)(=O)C3COC3)cc2N2CCC3(CC2)CC3)nc(N2CCC(F)(F)CC2)c1 [Example 7-11, N-(6-(4,4-Difluoropiperidin-1-yl)-4-methylpyridin-2-yl)-4-(oxetane-3-sulfonamido)-2-(6-azaspiro[2.5]octan-6-yl)benzamide] | 81 nM |
| O=C(Nc1cncc(N2CCC(F)(F)CC2)n1)c1ccc(NS(=O)(=O)CCO)cc1N1CCC2(CC1)CC2 [Example 7-44, N-(6-(4,4-Difluoropiperidin-1-yl)pyrazin-2-yl)-4-((2-hydroxyethyl)sulfonamido)-2-(6-azaspiro[2.5]octan-6-yl)benzamide] | 16 nM |
| Cc1cc(NC(=O)c2ccc(NS(=O)(=O)[C@@H](C)CO)cc2N2CCC3(CC2)CC3)nc(N2CCC(F)(F)CC2)c1 (single isomer, unassigned) [Example 9-7] | 27 nM |
| Cc1cc(NC(=O)c2ccc(NS(=O)(=O)[C@H](C)CO)cc2N2CCC3(CC2)CC3)nc(N2CC(F)(F)C2)c1 (single isomer, unassigned) [Example 9-5] | 17 nM |
| Cc1cc(NC(=O)c2ccc(NS(=O)(=O)[C@H](C)CO)cc2N2CCC3(CC2)CC3)nc(N2CCC(F)(F)CC2)c1 (single isomer, unassigned) [Example 9-8] | 38 nM |
| C[C@H](CO)S(=O)(=O)Nc1ccc(C(=O)Nc2cccc(N3CC(F)(F)C3)n2)c(N2CCC3(CC2)CC3)c1 (single isomer, unassigned) [Example 9-3] | 25 nM |
| O=C(Nc1cccc(OCCC(O)C(F)(F)F)n1)c1ccc(NS(=O)(=O)CCO)cc1N1CCC2(CC1)CC2 (stereo not drawn) [Example 16-6, 4-((2-Hydroxyethyl)sulfonamido)-2-(6-azaspiro[2.5]octan-6-yl)-N-(6-(4,4,4-trifluoro-3-hydroxybutoxy)pyridin-2-yl)benzamide] | 81 nM |
| O=C(Nc1cccc(OCCC(F)F)n1)c1ccc(NS(=O)(=O)CCO)cc1N1CCC2(CC1)CC2 [Example 16-9, N-(6-(3,3-Difluoropropoxy)pyridin-2-yl)-4-((2-hydroxyethyl)sulfonamido)-2-(6-azaspiro[2.5]octan-6-yl)benzamide] | 51 nM |
| Cc1cc(NC(=O)c2ccc(NS(=O)(=O)C(C)(C)C)cc2N2CCC3(CC2)CC3)nc(N2CCC(F)(F)CC2)c1 [Example 7-22, N-(6-(4,4-Difluoropiperidin-1-yl)-4-methylpyridin-2-yl)-4-((1,1-dimethylethyl)sulfonamido)-2-(6-azaspiro[2.5]octan-6-yl)benzamide] | 103 nM |

Now from value to compound:

| IC50 | SMILES |
| --- | --- |
| 91 nM | CC1(S(=O)(=O)Nc2ccc(C(=O)Nc3cccc(N4CCC(C#N)CC4)n3)c(N3CCC4(CC3)CC4)c2)CC1 [Example 3-21, N-(6-(4-Cyanopiperidin-1-yl)pyridin-2-yl)-4-((1-methylcyclopropane)-1-sulfonamido)-2-(6-azaspiro[2.5]octan-6-yl)benzamide] |
| 62 nM | C[C@@H]1CN(c2cccc(NC(=O)c3ccc(NS(=O)(=O)C4CCC4)cc3N3CCC4(CC3)CC4)n2)CCO1 [Example 7-9, (R)-4-(Cyclobutanesulfonamido)-N-(6-(2-methylmorpholino)pyridin-2-yl)-2-(6-azaspiro[2.5]octan-6-yl)benzamide] |
| 16 nM | C[C@@H]1CN(c2cccc(NC(=O)c3ccc(S(=O)(=O)NCCO)cc3N3CCC4(CC3)CC4)n2)CCO1 [Example 1-1, (R)-4-(N-(2-Hydroxyethyl)sulfamoyl)-N-(6-(2-methylmorpholino)pyridin-2-yl)-2-(6-azaspiro[2.5]octan-6-yl)benzamide] |
| 44 nM | CNS(=O)(=O)c1ccc(C(=O)Nc2cccc(N3CCO[C@H](C)C3)n2)c(N2CCC3(CC2)CC3)c1 [Example 1-3, (R)-N-(6-(2-Methylmorpholino)pyridin-2-yl)-4-(N-methylsulfamoyl)-2-(6-azaspiro[2.5]octan-6-yl)benzamide] |
| 85 nM | C[C@@H]1CN(c2cccc(NC(=O)c3ccc(S(=N)(=O)C4CC4)cc3N3CCC4(CC3)CC4)n2)CCO1 (single isomer, unassigned) [Example 12-1] |
| 71 nM | Cc1cc(NC(=O)c2ccc(S(=N)(=O)C3CC3)cc2N2CCC3(CC2)CC3)nc(N2CC(F)(F)C2)c1 (single isomer, unassigned) [Example 28-1, 2-(6-Azaspiro[2.5]octan-6-yl)-4-(S-cyclopropylsulfonimidoyl)-N-(6-(3,3-difluoro-1-azetidinyl)-4-methyl-2-pyridinyl)benzamide] |
| 46 nM | CC1(S(=O)(=O)Nc2ccc(C(=O)Nc3cccc(N4CCC[C@@H](O)C4)n3)c(N3CCC4(CC3)CC4)c2)CC1 [Example 3, (R)-N-(6-(3-Hydroxypiperidin-1-yl)pyridin-2-yl)-4-((1-methylcyclopropane)-1-sulfonamido)-2-(6-azaspiro[2.5]octan-6-yl)benzamide] |
| 38 nM | C[C@@H]1CN(c2cccc(NC(=O)c3ccc(S(=O)(=O)C4COC4)cc3N3CCC4(CC3)CC4)n2)CCO1 [Example 2-4, (R)-N-(6-(2-Methylmorpholino)pyridin-2-yl)-4-(oxetan-3-ylsulfonyl)-2-(6-azaspiro[2.5]octan-6-yl)benzamide] |
| 24 nM | C[C@H](CO)S(=O)(=O)Nc1ccc(C(=O)Nc2cccc(N3CCO[C@@H](C)C3)n2)c(N2CCC3(CC2)CC3)c1 (single isomer, unassigned) [Example 9-17] |
| 49 nM | Cc1cc(NC(=O)c2ccc(NS(=O)(=O)CCO)cc2N2CCC3(CC2)CC3)nc(N2CCO[C@@H](C)C2)c1 [Example 7-19, (S)-4-((2-Hydroxyethyl)sulfonamido)-N-(4-methyl-6-(2-methylmorpholino)pyridin-2-yl)-2-(6-azaspiro[2.5]octan-6-yl)benzamide] |
| 39 nM | Cc1cc(NC(=O)c2ccc(NS(=O)(=O)[C@@H](C)CO)cc2N2CCC3(CC2)CC3)nc(N2CCO[C@H](C)C2)c1 (single isomer, unassigned) [Example 9-12] |
| 315 nM | CC(C)(O)c1cccc(NC(=O)c2ccc(S(C)(=O)=O)cc2N2CCC3(CC2)CC3)n1 [Example 4-7, N-(6-(2-Hydroxypropan-2-yl)pyridin-2-yl)-4-(methylsulfonyl)-2-(6-azaspiro[2.5]octan-6-yl)benzamide] |
| 135 nM | C[C@@H]1CN(c2cccc(NC(=O)c3ccc(NS(=O)(=O)CC(F)(F)F)cc3N3CCC4(CC3)CC4)n2)CCO1 [Example 7-39, (R)-N-(6-(2-methylmorpholino)pyridin-2-yl)-2-(6-azaspiro[2.5]octan-6-yl)-4-((2,2,2-trifluoroethyl)sulfonamido)benzamide] |
